The numbers were not newly measured in patent US20180116952A1, “ORAL PHARMACEUTICAL COMPOSITION OF METHYL[…] METHODS OF USE THEREOF” (Lupin Atlantis Holdings SA, priority 2015, published 2018), which cites them from elsewhere.

Structures are written as SMILES.

The series deals with patients with drug-induced refractory headache. Particulars: 60 consecutive patients with drug-induced refractory headache.

For `CCC(CO)NC(=O)[C@@H]1C=C2c3cccc4[nH]cc(c34)C[C@H]2N(C)C1.O=C(O)/C=C\C(=O)O` (stereo partly shown) [methylergonovine, methylergonovine maleate], the “patients in whom methylergonovine was effective” value is reported as 73%.
